Data reported in patent US9492453B2 (priority 2007, dated 2016).
Like-named read-outs stand apart in the source and are kept apart here.

Legend:
PKB (Akt) = details: read-out: Cellular PKB Mean IC50; MDA-MB-468 cells, phosphorylation of Serine-9 of GSK-3β, 2 hours incubation
AKT1 (PKBα) = AKT1 (PKBα) (Homo sapiens (Human), UniProt P31749); details: read-out: In vitro PKBα Mean IC50, AKT1/PKBα active enzyme, Caliper LabChip LC3000
[1] = Human dose prediction (estimated human pharmacokinetic parameters); details: plasma; from rat and dog Vss corrected by Fu, human/Fu (rat or dog); read-out: Human Vss (Volume of Distribution at Steady State), estimated

Sequence of AKT1 (PKBα) (P31749 whole entry): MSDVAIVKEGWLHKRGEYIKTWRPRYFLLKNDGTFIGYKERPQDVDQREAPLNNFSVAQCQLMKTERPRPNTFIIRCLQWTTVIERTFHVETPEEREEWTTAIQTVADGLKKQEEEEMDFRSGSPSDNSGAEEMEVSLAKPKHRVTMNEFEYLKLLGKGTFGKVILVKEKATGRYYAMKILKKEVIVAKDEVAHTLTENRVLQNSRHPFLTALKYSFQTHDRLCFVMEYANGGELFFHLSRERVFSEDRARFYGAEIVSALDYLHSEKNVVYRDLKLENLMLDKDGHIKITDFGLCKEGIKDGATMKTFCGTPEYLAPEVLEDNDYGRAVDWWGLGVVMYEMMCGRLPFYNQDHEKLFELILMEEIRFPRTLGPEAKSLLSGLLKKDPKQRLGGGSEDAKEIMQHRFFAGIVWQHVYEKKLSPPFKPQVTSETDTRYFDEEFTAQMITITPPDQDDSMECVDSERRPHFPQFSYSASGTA

IC50 (PKB (Akt)) [µM]	IC50 (AKT1 (PKBα)) [µM]	IC50 (AKT1 (PKBα); tested once only) [µM]	Vd [1] [L/kg]	Compound
0.25	0.0042	–	–	CC(=O)NCCC(NC(=O)C1(N)CCN(c2ncnc3[nH]ccc23)CC1)c1ccc(Cl)cc1 (centres unmarked) [Example 10, N-(3-acetamido-1-(4-chlorophenyl)propyl)-4-amino-1-(7H-pyrrolo[2,3-d]pyrimidin-4-yl)piperidine-4-carboxamide]
1.4	0.016	–	–	N#Cc1ccc([C@H](CCO)NC(=O)C2(N)CCN(c3ncnc4[nH]ccc34)CC2)cc1 [Example 18, (S)-4-amino-N-(1-(4-cyanophenyl)-3-hydroxypropyl)-1-(7H-pyrrolo[2,3-d]pyrimidin-4-yl)piperidine-4-carboxamide]
1.9	0.032	–	–	NC1(C(=O)N[C@@H](CCO)c2cccc(Cl)c2)CCN(c2ncnc3[nH]ccc23)CC1 [Example 40, 4-amino-N-[(1S)-1-(3-chlorophenyl)-3-hydroxypropyl]-1-(7H-pyrrolo[2,3-d]pyrimidin-4-yl)piperidine-4-carboxamide]
0.06	0.0022	–	–	NC1(C(=O)N[C@@H](CCO)c2ccc(Br)cc2)CCN(c2ncnc3[nH]ccc23)CC1 [Example 24, (S)-4-amino-N-(1-(4-bromophenyl)-3-hydroxypropyl)-1-(7H-pyrrolo[2,3-d]pyrimidin-4-yl)piperidine-4-carboxamide]
–	–	–	3.3	NC1(C(=O)N[C@@H](CCO)c2ccc(Cl)cc2)CCN(c2ncnc3[nH]ccc23)CC1 [Example 9, (S)-4-amino-N-(1-(4-chlorophenyl)-3-hydroxypropyl)-1-(7H-pyrrolo[2,3-d]pyrimidin-4-yl)piperidine-4-carboxamide]
0.98	–	0.02	–	NC1(C(=O)N[C@@H](CCO)c2ccc(Cl)cc2)CCN(c2ncnc3[nH]ncc23)CC1 [Example 20, (S)-4-amino-N-(1-(4-chlorophenyl)-3-hydroxypropyl)-1-(1H-pyrazolo[3,4-d]pyrimidin-4-yl)piperidine-4-carboxamide]

The next lines start with the compound.

Compound	IC50 (PKB (Akt)) [µM]	IC50 (AKT1 (PKBα)) [µM]	IC50 (AKT1 (PKBα); tested once only) [µM]	Vd [1] [L/kg]
NC1(C(=O)N[C@@H](CCO)c2ccc(Cl)cc2)CCN(c2ncnc3[nH]nc(Br)c23)CC1 [Example 33, 4-amino-1-(3-bromo-1H-pyrazolo[3,4-d]pyrimidin-4-yl)-N-[(1S)-1-(4-chlorophenyl)-3-hydroxypropyl]piperidine-4-carboxamide]	0.24	0.014	–	–
Cc1c[nH]c2ncnc(N3CCC(N)(C(=O)N[C@@H](CCO)c4ccc(Cl)cc4)CC3)c12 [Example 36, 4-amino-N-[(1S)-1-(4-chlorophenyl)-3-hydroxypropyl]-1-(5-methyl-7H-pyrrolo[2,3-d]pyrimidin-4-yl)piperidine-4-carboxamide]	0.38	0.014	–	–
NC1(C(=O)N[C@@H](CCO)c2ccccc2)CCN(c2ncnc3[nH]ccc23)CC1 [Example 21, (S)-4-amino-N-(3-hydroxy-1-phenylpropyl)-1-(7H-pyrrolo[2,3-d]pyrimidin-4-yl)piperidine-4-carboxamide]	> 3.1	–	0.059	–
NC1(C(=O)N[C@@H](CCO)c2ccc(Cl)cc2)CCN(c2ncnc3[nH]cc(Cl)c23)CC1 [Example 34, 4-amino-N-[(1S)-1-(4-chlorophenyl)-3-hydroxypropyl]-1-(5-chloro-7H-pyrrolo[2,3-d]pyrimidin-4-yl)piperidine-4-carboxamide]	0.35	0.0092	–	–
NC1(C(=O)N[C@@H](CCN2CCNCC2)c2ccc(Cl)cc2)CCN(c2ncnc3[nH]ccc23)CC1 [Example 53, 4-amino-N-[(1S)-1-(4-chlorophenyl)-3-piperazin-1-ylpropyl]-1-(7H-pyrrolo[2,3-d]pyrimidin-4-yl)piperidine-4-carboxamide]	> 2.4	0.0063	–	–
C[C@H](NC(=O)C1(N)CCN(c2ncnc3[nH]cc(Cl)c23)CC1)c1ccc(Cl)cc1 [Example 32, 4-amino-N-[(1S)-1-(4-chlorophenyl)ethyl]-1-(5-chloro-7H-pyrrolo[2,3-d]pyrimidin-4-yl)piperidine-4-carboxamide]	0.42	0.012	–	–
